Target: T1, 15-hydroxyprostaglandin dehydrogenase [NAD(+)] (Homo sapiens, UniProt P15428)
T1 sequence (P15428 whole entry): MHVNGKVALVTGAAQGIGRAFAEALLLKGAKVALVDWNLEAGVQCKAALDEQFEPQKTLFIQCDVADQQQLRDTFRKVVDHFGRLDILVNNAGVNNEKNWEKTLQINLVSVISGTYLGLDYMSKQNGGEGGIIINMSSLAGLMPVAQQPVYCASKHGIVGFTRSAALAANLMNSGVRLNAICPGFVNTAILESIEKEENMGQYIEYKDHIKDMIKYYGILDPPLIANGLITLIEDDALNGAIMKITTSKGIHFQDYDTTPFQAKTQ
Test: In vitro Assay (1 nM)
Method: Each compound for inhibiting enzymatic activity of recombinant 15-PGDH (1 nM) in an in vitro assay.

| SMILES | IC50 [nM] |
| --- | --- |
| CCCC[S+]([O-])c1sc2nc(-c3cncnc3)nc(-c3ccccc3)c2c1N (stereo unspecified) [US20240043440, Example 83] | 1.3 |
| COCC[S+]([O-])c1sc2nc(-c3cccnc3)nc(-c3ccccc3)c2c1N (stereo unspecified) [US20240043440, Example 79] | 1.5 |
| COCCC[S@@+]([O-])c1sc2nc(-c3cccnc3)nc(-c3ccc(F)cc3)c2c1N [US20240043440, Example 87A] | 1.3 |
| CCCC[S+]([O-])c1sc2nc(-c3nccs3)nc(-c3nccn3C)c2c1N (stereo unspecified) [US20240043440, Example 77] | 1.8 |
| COCCC[S+]([O-])c1sc2nc(-c3cccnc3)cc(-c3cncn3C)c2c1N (stereo unspecified) [US20240043440, Example 50] | 1.4 |
| COCCC[S+]([O-])c1sc2nc(-c3cccnc3)nc(-c3ccccc3)c2c1N (stereo unspecified) [US20240043440, Example 78] | 1.4 |
| CCCC[S+]([O-])c1sc2nc(-c3cccnc3)cc(-c3ccncc3)c2c1N (stereo unspecified) [US20240043440, Example 71] | 0.98 |
| CCCC[S@+]([O-])c1sc2nc(-c3cccnc3)nc(-c3nccn3C)c2c1N [US20240043440, Example 86B] | 41 |
| CCCC[S+]([O-])c1sc2nc(-c3cccnc3)cc(-c3ncsc3C)c2c1N (stereo unspecified) [US20240043440, Example 73] | 1 |
| COCCC[S+]([O-])c1sc2nc(-c3cnc(N)nc3)cc(-c3ccccc3)c2c1N (stereo unspecified) [US20240043440, Example 65] | 1.1 |
| CCCC[S+]([O-])c1sc2nc(-c3cccnc3)nc(-c3ccccc3)c2c1N (stereo unspecified) [US20240043440, Example 74] | 1.2 |
| CCCC[S+]([O-])c1sc2nc(-c3cnc(N)nc3)cc(-c3cnc(C)n3C)c2c1N (stereo unspecified) [US20240043440, Example 72] | 0.93 |
| Cn1cncc1-c1cc(-c2nccs2)nc2sc([S+]([O-])C3CCCCC3)c(N)c12 (stereo unspecified) [US20240043440, Example 33] | 1.6 |
| CCCC[S+]([O-])c1sc2nc(-c3ncccn3)cc(-c3ccccc3)c2c1N (stereo unspecified) [US20240043440, Example 44] | 1.7 |
| CCCC[S+]([O-])c1sc2nc(-c3cccnc3)cc(-c3cccnc3)c2c1N (stereo unspecified) [US20240043440, Example 54] | 0.82 |
| CCOCC[S+]([O-])c1sc2nc(-c3nccs3)cc(-c3cnc(C)n3C)c2c1N (stereo unspecified) [US20240043440, Example 34] | 3.1 |
| CCCC[S+]([O-])c1sc2nc(-c3cnc(NC)nc3)cc(-c3ccccc3)c2c1N (stereo unspecified) [US20240043440, Example 60] | 1.4 |
| CCCC[S+]([O-])c1sc2nc(-c3cnc(N)nc3)cc(-c3ccc(F)cc3)c2c1N (stereo unspecified) [US20240043440, Example 61] | 1.1 |
| CCCC[S+]([O-])c1sc2nc(-c3cccnc3)cc(-c3cnc(C)n3C)c2c1N (stereo unspecified) [US20240043440, Example 38] | 1.4 |
| COCCC[S+]([O-])c1sc2nc(-c3nccs3)cc(-c3cncn3C)c2c1N (stereo unspecified) [US20240043440, Example 37] | 1.8 |
| CCCC[S+]([O-])c1sc2nc(-c3ncccn3)nc(-c3ccccc3)c2c1N (stereo unspecified) [US20240043440, Example 80] | 12 |
| CCCC[S+]([O-])c1sc2nc(-c3cccnc3)cc(-c3cncn3C)c2c1N (stereo unspecified) [US20240043440, Example 43] | 1.1 |
| CCCC[S@@+]([O-])c1sc2nc(-c3cccnc3)nc(-c3nccn3C)c2c1N [US20240043440, Example 86A] | 0.56 |
| CCCC[S+]([O-])c1sc2nc(-c3cccnc3)nc(-c3cscn3)c2c1N (stereo unspecified) [US20240043440, Example 81] | 0.76 |
| CCCC[S+]([O-])c1sc2nc(-c3ccncn3)cc(-c3ccccc3)c2c1N (stereo unspecified) [US20240043440, Example 47] | 1.1 |
| CCCC[S+]([O-])c1sc2nc(-c3cnccc3C)cc(-c3cnc(C)n3C)c2c1N (stereo unspecified) [US20240043440, Example 56] | 2.2 |

| SMILES | IC50 [nM] |
| --- | --- |
| CCCC[S+]([O-])c1sc2nc(-c3cccnc3)cc(-c3nccs3)c2c1N (stereo unspecified) [US20240043440, Example 51] | 1 |
| CCCC[S+]([O-])c1sc2nc(-c3cncnc3)cc(-c3cnc(C4CC4)n3C)c2c1N (stereo unspecified) [US20240043440, Example 53] | 2.6 |
| CCCC[S+]([O-])c1sc2nc(-c3ncccc3F)cc(-c3cnc(C)n3C)c2c1N (stereo unspecified) [US20240043440, Example 45] | 2.2 |
| COCCC[S+]([O-])c1sc2nc(-c3ccc(N)nc3)cc(-c3cccnc3)c2c1N (stereo unspecified) [US20240043440, Example 90] | 2.5 |
| COCCC[S+]([O-])c1sc2nc(-c3cnco3)cc(-c3ccccc3)c2c1N (stereo unspecified) [US20240043440, Example 70] | 0.88 |
| CCCC[S+]([O-])c1sc2nc(-c3cccnc3)cc(-c3ccccn3)c2c1N (stereo unspecified) [US20240043440, Example 58] | 1.2 |
| COCC[S@@+]([O-])c1sc2nc(-c3cccnc3)nc(-c3ccccc3)c2c1N [US20240043440, Example 79-A] | 1 |
| Cc1ncc(-c2cc(-c3nccs3)nc3sc([S+]([O-])CC(C)C)c(N)c23)n1C (stereo unspecified) [US20240043440, Example 35] | 3.6 |
| Cn1cncc1-c1cc(-c2nccs2)nc2sc([S+]([O-])C3CCCC3)c(N)c12 (stereo unspecified) [US20240043440, Example 32] | 1.6 |
| CCCC[S+]([O-])c1sc2nc(-c3cccnc3)nc(-c3nccs3)c2c1N (stereo unspecified) [US20240043440, Example 82] | 1 |
| CCCC[S+]([O-])c1sc2nc(-c3cccnc3)nc(-c3cn(C)cn3)c2c1N (stereo unspecified) [US20240043440, Example 85] | 1.3 |
| CCCC[S+]([O-])c1sc2nc(-c3cncnc3)cc(-c3cnc(C)n3C)c2c1N (stereo unspecified) [US20240043440, Example 39] | 1.2 |
| CCCC[S+]([O-])c1sc2nc(-c3cccnc3)cc(-c3ccccc3F)c2c1N (stereo unspecified) [US20240043440, Example 55] | 1 |
| COCCC[S+]([O-])c1sc2nc(-c3cnn(C)c3)cc(-c3ccccc3)c2c1N (stereo unspecified) [US20240043440, Example 66] | 1.4 |
| CCCC[S+]([O-])c1sc2nc(-c3ccccn3)nc(-c3ccccc3)c2c1N (stereo unspecified) [US20240043440, Example 76] | 3.6 |
| CCCC[S+]([O-])c1sc2nc(-c3cccnc3)nc(-c3nccn3C)c2c1N (stereo unspecified) [US20240043440, Example 86] | 1.1 |
| CCCC[S+]([O-])c1sc2nc(-c3cnc(N(C)C)nc3)cc(-c3ccccc3)c2c1N (stereo unspecified) [US20240043440, Example 63] | 1.7 |
| CCCC[S+]([O-])c1sc2nc(-c3cccnc3)nc(-c3cncn3C)c2c1N (stereo unspecified) [US20240043440, Example 84] | 1.2 |
| COCC[S+]([O-])c1sc2nc(-c3ccc(C4COC4)nc3)cc(-c3ccc(F)cc3)c2c1N (stereo unspecified) [US20240043440, Example 91] | 2.4 |
| COCCC[S+]([O-])c1sc2nc(-c3cccnc3)cc(-c3cn(C)cn3)c2c1N (stereo unspecified) [US20240043440, Example 89] | 1.3 |
| CCCC[S+]([O-])c1sc2nc(-c3ccc(N)nc3)cc(-c3ccccc3)c2c1N (stereo unspecified) [US20240043440, Example 62] | 1.5 |
| COCC[S+]([O-])c1sc2nc(-c3cccnc3)cc(-c3cncn3C)c2c1N (stereo unspecified) [US20240043440, Example 49] | 1.8 |
| CCCC[S+]([O-])c1sc2nc(-c3ccccn3)cc(-c3cnc(C)n3C)c2c1N (stereo unspecified) [US20240043440, Example 40] | 2.4 |
| CCCC[S+]([O-])c1sc2nc(-c3cccnc3)cc(-c3ccc(C#N)cc3)c2c1N (stereo unspecified) [US20240043440, Example 59] | 0.91 |
| CCCC[S+]([O-])c1sc2nc(-c3cnc(N)nc3)cc(-c3nccs3)c2c1N (stereo unspecified) [US20240043440, Example 69] | 1.1 |
